These are literature values, as cited in US20050009776A1, “Method of treating atrial fibrillation or atrial flutter” (Aderis Pharmaceuticals, Inc., priority 2003, published 2005).

The conditions of this series: cited from earlier work.

With `Nc1ncnc2c1ncn2[C@@H]1O[C@H](CO)[C@@H](O)[C@H]1O` [adenosine], the half-life (commonly the time needed for the level to fall by half in the phase considered) is 10 s.
